Reference: patent US6706663B2, “Herbicidal 3-heterocyclic substituted benzisothiazole and benzisoxazole compounds” (Wyeth, priority 2000, dated 2004)

Tests used:
GALAP (Galium aparine) [1] = test: Postemergence herbicidal evaluation; assay type: in vivo
Summary of the method: (§1)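 Visual 0–9 injury scores versus control plants, covering stand, vigour, malformation, size, chlorosis and general appearance, taken four to five weeks post-spray and averaged over replicate tests. Plants were sprayed at roughly two weeks old and held on greenhouse benches.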

[2] = system: ECHCG (Echinochloa crus-galli); test: Postemergence herbicidal evaluation; assay type: in vivo, (L.) Beau
Summary of the method: as §1

SETVI (Setaria viridis) = test: Postemergence herbicidal evaluation; assay type: in vivo, (L.) Beau
Summary of the method: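 Postemergence foliar spray on two-week-old seedlings, dose equivalent to about 0.0040 to 1.000 kg/ha. Ratings use a 0-9 visual scale relative to control at four to five weeks.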

[3] = system: TRZAWR (Wheat, Winter, cv Riband); test: Postemergence herbicidal evaluation; assay type: in vivo, Triticum aestivum
Summary of the method: as §1

ZEAMX (Corn, Field) = test: Postemergence herbicidal evaluation; assay type: in vivo, Zea mays, L.
Summary of the method: as §1

GALAP (Galium aparine) [4] = test: Preemergence herbicidal evaluation; assay type: in vivo; conditions: rated 4-5 weeks after treatment
Summary of the method: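 Rating 0–9, visual, vs control; 4–5 wk after spraying seeded cups with compound in aq. acetone; conventional greenhouse care.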

ORYSAT (Rice, Tebonnet) = test: Preemergence herbicidal evaluation; assay type: in vivo, Oryza sativa, (L.) Tebonnet; conditions: rated 4-5 weeks after treatment
[5] = system: ECHORC (Echinochloa oryzoides); test: Flooded paddy, preemergence weed control; assay type: in vivo, Echinochloa oryzoides (Ard.) Fritsch.; conditions: rated 3-4 weeks after treatment, 0-9 rating scale
Summary of the method: (§2)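 Visual 0-9 rating versus control, scoring stand, vigor, malformation, size, chlorosis and overall appearance. Silt loam soil, propagules in top 0.5 cm; flood depth 1.5–3 cm held for the whole test; greenhouse.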

[6] = system: CYPSE (Cyperus serotinus); test: Flooded paddy, preemergence weed control; assay type: in vivo, Rottb.; conditions: rated 3-4 weeks after treatment, 0-9 rating scale
Summary of the method: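 Seeds or propagules were planted 0.5 cm deep in silt loam and flooded to 1.5–3 cm. Compounds in 50/50 v/v aqueous/acetone were pipetted into the flood water at about 0.0080 to 0.1250 kg/ha. After 3–4 weeks in the greenhouse, effect was rated visually on a 0–9 scale versus untreated control.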

[7] = system: SAGPY (Sagittaria pygmaea); test: Flooded paddy, preemergence weed control; assay type: in vivo, L.; conditions: rated 3-4 weeks after treatment, 0-9 rating scale
Summary of the method: as §2

SMILES | Postemergence herbicidal rating, GALAP (GALAP (Galium aparine) [1]; rate 0.0320 kg/ha) | Postemergence herbicidal rating, GALAP (GALAP (Galium aparine) [1]; rate 0.0620 kg/ha) | Postemergence herbicidal rating, ECHCG ([2]; rate 0.0320 kg/ha) | Postemergence herbicidal rating, ECHCG ([2]; rate 0.0620 kg/ha) | Postemergence herbicidal rating, SETVI (SETVI (Setaria viridis); rate 0.0320 kg/ha) | Postemergence herbicidal rating, SETVI (SETVI (Setaria viridis); rate 0.0620 kg/ha) | Postemergence herbicidal rating, TRZAWR ([3]; rate 0.0320 kg/ha) | Postemergence herbicidal rating, TRZAWR ([3]; rate 0.0620 kg/ha) | Postemergence herbicidal rating, ZEAMX (ZEAMX (Corn, Field); rate 0.0320 kg/ha) | Postemergence herbicidal rating, ZEAMX (ZEAMX (Corn, Field); rate 0.0620 kg/ha) | herbicidal rating, ECHORC ([5]; rate 0.0320 kg/ha) | herbicidal rating, ECHORC ([5]; rate 0.1250 kg/ha) | herbicidal rating, CYPSE ([6]; rate 0.0320 kg/ha) | herbicidal rating, CYPSE ([6]; rate 0.1250 kg/ha) | GALAP preemergence herbicidal rating (GALAP (Galium aparine) [4]; Rate 0.0620 kg/ha) | GALAP preemergence herbicidal rating (GALAP (Galium aparine) [4]; Rate 0.1250 kg/ha) | GALAP preemergence herbicidal rating (GALAP (Galium aparine) [4]; Rate 0.2500 kg/ha) | ORYSAT preemergence herbicidal rating (ORYSAT (Rice, Tebonnet); Rate 0.0620 kg/ha) | ORYSAT preemergence herbicidal rating (ORYSAT (Rice, Tebonnet); Rate 0.1250 kg/ha) | ORYSAT preemergence herbicidal rating (ORYSAT (Rice, Tebonnet); Rate 0.2500 kg/ha) | also measured
Cc1cccnc1-c1nsc2cc(F)c(-n3c(=O)cc(C(F)(F)F)n(C)c3=O)cc12 [Compound 44, 3-[6-fluoro-3-(3-methyl-2-pyridyl)-1,2-benzisothiazol-5-yl]-1-methyl-6-(trifluoromethyl)uracil] | 4.0 | 7.0 | 1.0 | 3.0 | 9.0 | 9.0 | 4.0 | 5.0 | 5.0 | 5.5 | 8.5 | 9.0 | 9.0 | 9.0 | – | – | – | – | – | – | Preemergence herbicidal rating GALAP (GALAP (Galium aparine) [4]; Rate 0.0620 kg/ha): 0.0; Preemergence herbicidal rating GALAP (GALAP (Galium aparine) [4]; Rate 0.1250 kg/ha): 9.0; Preemergence herbicidal rating GALAP (GALAP (Galium aparine) [4]; Rate 0.2500 kg/ha): 9.0; Preemergence herbicidal rating ORYSAT (ORYSAT (Rice, Tebonnet); Rate 0.0620 kg/ha): 6.5; Preemergence herbicidal rating ORYSAT (ORYSAT (Rice, Tebonnet); Rate 0.1250 kg/ha): 8.0; Preemergence herbicidal rating ORYSAT (ORYSAT (Rice, Tebonnet); Rate 0.2500 kg/ha): 8.0; herbicidal rating, ECHORC ([5]; rate 0.0080 kg/ha): 3.0; herbicidal rating, CYPSE ([6]; rate 0.0080 kg/ha): 0.0; herbicidal rating, SAGPY ([7]; rate 0.0080 kg/ha): 0.0; herbicidal rating, SAGPY ([7]; rate 0.0320 kg/ha): 4.5; herbicidal rating, SAGPY ([7]; rate 0.1250 kg/ha): 9.0
CC(=O)N1CCSC1c1nsc2ccc(-n3c(=O)cc(C(F)(F)F)n(C)c3=O)cc12 (stereo not drawn) [Compound 29, 3-acetyl-2-[5-[3,6-dihydro-3-methyl-2,6-dioxo-4-(trifluoromethyl)-1(2H)-pyrimidinyl]-1,2-benzisothiazol-3-yl]thiazolidine] | 4.0 | 6.0 | 0.0 | 2.0 | 0.0 | 5.0 | 4.5 | 4.5 | 6.0 | 6.0 | 7.0 | 9.0 | 0.0 | 6.0 | 3.0 | 7.0 | 9.0 | 4.0 | 5.0 | 6.5 | herbicidal rating, ECHORC ([5]; rate 0.0080 kg/ha): 0.0; herbicidal rating, SAGPY ([7]; rate 0.0080 kg/ha): 0.0; herbicidal rating, SAGPY ([7]; rate 0.0320 kg/ha): 3.5; herbicidal rating, SAGPY ([7]; rate 0.1250 kg/ha): 9.0
Cn1c(C(F)(F)F)cc(=O)n(-c2ccc3snc(C4OCC(C)(C)CO4)c3c2)c1=O [Compound 36, 3-[3(5,5-dimethyl-m-dioxan-2-yl)-1,2-benzisothiazol-5-yl]-1-methyl-6-(trifluoromethyl)uracil] | 4.0 | 5.0 | 1.0 | 3.0 | 4.0 | 9.0 | 4.0 | 4.5 | 5.0 | 6.0 | 8.5 | 9.0 | 9.0 | 9.0 | 5.0 | 9.0 | 9.0 | 7.5 | 9.0 | 9.0 | herbicidal rating, ECHORC ([5]; rate 0.0080 kg/ha): 5.0; herbicidal rating, SAGPY ([7]; rate 0.0080 kg/ha): 0.0; herbicidal rating, SAGPY ([7]; rate 0.0320 kg/ha): 3.5; herbicidal rating, SAGPY ([7]; rate 0.1250 kg/ha): 9.0
Cn1c(C(F)(F)F)cc(=O)n(-c2ccc3snc(C4OCCCO4)c3c2)c1=O [Compound 28, 3-(3-m-dioxan-2-yl-1,2-benzisothiazol-5-yl)-1-methyl-6-(trifluoromethyl)uracil] | 8.3 | 9.0 | 4.3 | 8.5 | 8.3 | 8.5 | 5.0 | 6.5 | 5.8 | 6.3 | 8.5 | 9.0 | 9.0 | 9.0 | 9.0 | 9.0 | 9.0 | 9.0 | 9.0 | 9.0 | herbicidal rating, ECHORC ([5]; rate 0.0080 kg/ha): 5.0; herbicidal rating, SAGPY ([7]; rate 0.0080 kg/ha): 0.0; herbicidal rating, SAGPY ([7]; rate 0.0320 kg/ha): 8.0; herbicidal rating, SAGPY ([7]; rate 0.1250 kg/ha): 9.0
COC(=O)C(C)Oc1ccsc1-c1nsc2ccc(-n3c(=O)cc(C(F)(F)F)n(C)c3=O)cc12 (stereo not drawn) [Compound 23, methyl 2-[(2-[5-[3,6-dihydro-3-methyl-2,6-dioxo-4-(trifluoromethyl)-1(2H)-pyrimidinyl]-1,2-benzisothiazol-3-yl]-3-thienyl]oxy]propionate] | 1.0 | 2.0 | 0.0 | 1.0 | 1.0 | 1.0 | 2.5 | 3.5 | 5.0 | 6.5 | 0.0 | 3.0 | 0.0 | 9.0 | 0.0 | 0.0 | 1.0 | 0.0 | 0.0 | 0.0 | Postemergence herbicidal rating, GALAP (GALAP (Galium aparine) [1]; rate 0.1250 kg/ha): 2.0; Postemergence herbicidal rating, ECHCG ([2]; rate 0.1250 kg/ha): 5.0; Postemergence herbicidal rating, SETVI (SETVI (Setaria viridis); rate 0.1250 kg/ha): 7.0; Postemergence herbicidal rating, TRZAWR ([3]; rate 0.1250 kg/ha): 5.0; Postemergence herbicidal rating, ZEAMX (ZEAMX (Corn, Field); rate 0.1250 kg/ha): 7.0
Cc1ccc(-c2nsc3ccc(N4C(=O)C5=C(CCCC5)C4=O)cc23)s1 [Compound 20, N-[3-(5-methyl-2-thienyl)-1,2-benzisothiazol-5-yl]-1-cyclohexene-1,2-dicarboximide] | 1.0 | 1.0 | 1.0 | 1.0 | 2.0 | 2.0 | 3.5 | 4.0 | 5.0 | 5.0 | 5.0 | 7.0 | 4.0 | 7.0 | 0.0 | 0.0 | 3.0 | 0.0 | 0.0 | 0.0 | Postemergence herbicidal rating, GALAP (GALAP (Galium aparine) [1]; rate 0.1250 kg/ha): 1.0; Postemergence herbicidal rating, ECHCG ([2]; rate 0.1250 kg/ha): 1.0; Postemergence herbicidal rating, SETVI (SETVI (Setaria viridis); rate 0.1250 kg/ha): 2.0; Postemergence herbicidal rating, TRZAWR ([3]; rate 0.1250 kg/ha): 4.5; Postemergence herbicidal rating, ZEAMX (ZEAMX (Corn, Field); rate 0.1250 kg/ha): 5.5
